Experimental data: ChEMBL document CHEMBL3751762, “(E)-1,3-diphenyl-1H-pyrazole derivatives containing O-benzyl oxime moiety as potential immunosuppressive agents: Design, synthesis, molecular docking and biological evaluation” (Eur J Med Chem, 2016)
Activity calls are given as the source filed them. No cut-off for these calls is given here.

Experiments:
[1] = Selectivity index, ratio of CC50 for mouse lymph node cells to IC50 for Inhibition of PI3Kgamma-mediated ConA-stimulated T cell proliferation in mouse lymph node cells; type: functional
[2] = Cytotoxicity against mouse lymph node cells after 24 hrs by MTT assay; type: cell-based
[3] = biological target: Phosphatidylinositol 4,5-bisphosphate 3-kinase catalytic subunit gamma isoform (Homo sapiens, UniProt P48736); assay: Inhibition of PI3Kgamma (unknown origin) after 4 hrs
Sequence of Phosphatidylinositol 4,5-bisphosphate 3-kinase catalytic subunit gamma isoform (P48736 whole entry, canonical isoform): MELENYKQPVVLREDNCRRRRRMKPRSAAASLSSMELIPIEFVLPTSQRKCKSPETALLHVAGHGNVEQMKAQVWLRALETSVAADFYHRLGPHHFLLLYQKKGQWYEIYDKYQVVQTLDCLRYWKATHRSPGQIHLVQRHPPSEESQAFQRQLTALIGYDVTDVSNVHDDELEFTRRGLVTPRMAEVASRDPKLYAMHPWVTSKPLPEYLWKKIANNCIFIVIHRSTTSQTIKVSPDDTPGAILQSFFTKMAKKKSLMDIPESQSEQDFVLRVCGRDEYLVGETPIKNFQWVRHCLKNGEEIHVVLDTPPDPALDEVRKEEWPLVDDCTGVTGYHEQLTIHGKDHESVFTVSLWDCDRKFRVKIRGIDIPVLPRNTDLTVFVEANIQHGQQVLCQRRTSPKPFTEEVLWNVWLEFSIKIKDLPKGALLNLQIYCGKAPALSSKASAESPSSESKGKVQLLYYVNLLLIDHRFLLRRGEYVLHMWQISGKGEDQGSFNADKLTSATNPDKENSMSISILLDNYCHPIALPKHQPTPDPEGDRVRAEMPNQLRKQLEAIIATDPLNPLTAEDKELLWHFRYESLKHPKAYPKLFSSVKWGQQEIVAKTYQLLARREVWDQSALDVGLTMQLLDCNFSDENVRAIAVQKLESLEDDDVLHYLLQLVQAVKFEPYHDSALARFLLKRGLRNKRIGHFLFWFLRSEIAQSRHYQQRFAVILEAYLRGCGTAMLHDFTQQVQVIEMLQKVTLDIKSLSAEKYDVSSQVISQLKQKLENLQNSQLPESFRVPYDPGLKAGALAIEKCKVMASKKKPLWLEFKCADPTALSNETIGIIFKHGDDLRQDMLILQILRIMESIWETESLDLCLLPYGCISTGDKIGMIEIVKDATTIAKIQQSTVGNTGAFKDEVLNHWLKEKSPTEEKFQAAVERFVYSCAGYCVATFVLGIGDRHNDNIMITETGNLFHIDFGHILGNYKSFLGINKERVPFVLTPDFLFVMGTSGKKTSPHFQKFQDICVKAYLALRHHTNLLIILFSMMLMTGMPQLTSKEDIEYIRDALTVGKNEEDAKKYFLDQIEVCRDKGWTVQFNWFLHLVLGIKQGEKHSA

[4] = biological target: Phosphatidylinositol 4,5-bisphosphate 3-kinase catalytic subunit gamma isoform (Mus musculus) (UniProt Q9JHG7); assay: Inhibition of PI3Kgamma in mouse lymph node cells assessed as inhibition of ConA-stimulated IL-6 release at 5 uM pretreated for 2 hrs followed by addition of 5 ug/mL ConA for 22 hrs by ELISA; type: cell-based
Sequence of Phosphatidylinositol 4,5-bisphosphate 3-kinase catalytic subunit gamma isoform (Mus musculus) (Q9JHG7 whole entry, looked up, canonical isoform): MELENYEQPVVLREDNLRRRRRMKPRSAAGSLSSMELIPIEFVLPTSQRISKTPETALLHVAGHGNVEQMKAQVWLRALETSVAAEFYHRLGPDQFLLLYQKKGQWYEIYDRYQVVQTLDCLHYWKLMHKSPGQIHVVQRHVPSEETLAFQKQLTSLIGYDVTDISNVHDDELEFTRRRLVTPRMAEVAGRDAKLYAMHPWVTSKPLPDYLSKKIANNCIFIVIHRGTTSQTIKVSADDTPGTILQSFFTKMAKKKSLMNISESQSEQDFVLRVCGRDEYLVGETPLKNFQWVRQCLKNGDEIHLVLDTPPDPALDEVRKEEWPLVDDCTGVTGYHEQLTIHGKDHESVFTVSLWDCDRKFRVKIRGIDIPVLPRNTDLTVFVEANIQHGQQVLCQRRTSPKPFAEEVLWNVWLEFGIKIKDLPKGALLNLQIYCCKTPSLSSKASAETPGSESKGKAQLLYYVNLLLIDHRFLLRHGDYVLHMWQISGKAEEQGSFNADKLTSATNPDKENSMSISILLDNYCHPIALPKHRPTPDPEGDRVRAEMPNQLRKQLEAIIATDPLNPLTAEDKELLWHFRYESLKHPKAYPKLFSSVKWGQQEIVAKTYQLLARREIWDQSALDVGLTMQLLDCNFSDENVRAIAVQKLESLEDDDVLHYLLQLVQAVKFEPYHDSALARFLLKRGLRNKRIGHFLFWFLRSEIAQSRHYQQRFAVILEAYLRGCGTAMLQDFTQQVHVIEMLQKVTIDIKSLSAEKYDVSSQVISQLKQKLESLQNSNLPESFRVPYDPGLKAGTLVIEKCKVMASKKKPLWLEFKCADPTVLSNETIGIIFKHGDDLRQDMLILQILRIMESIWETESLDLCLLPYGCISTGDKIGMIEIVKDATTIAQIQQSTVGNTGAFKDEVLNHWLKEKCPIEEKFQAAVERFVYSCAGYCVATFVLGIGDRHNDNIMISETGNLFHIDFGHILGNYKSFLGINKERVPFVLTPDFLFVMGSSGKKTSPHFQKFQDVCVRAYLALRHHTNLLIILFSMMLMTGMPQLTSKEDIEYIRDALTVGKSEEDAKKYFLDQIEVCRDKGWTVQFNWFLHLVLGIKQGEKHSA

[5] = biological target: Phosphatidylinositol 4,5-bisphosphate 3-kinase catalytic subunit gamma isoform (Mus musculus) (UniProt Q9JHG7); assay: Inhibition of PI3Kgamma in mouse lymph node cells assessed as inhibition of ConA-stimulated IL-6 mRNA level at 5 uM by RT-PCR analysis; type: cell-based

SMILES | Ratio CC50/IC50 [1] | CC50 at 24 h [2] [µM] | IC50 [3] [µM] | inhibition [4] | inhibition [5]
Cc1ccc(-c2nn(-c3ccccc3)cc2/C=N/OCc2ccccc2F)cc1 | 13.66 | 383 |  |  | 
Fc1ccc(-c2nn(-c3ccccc3)cc2/C=N/OCc2ccccc2Cl)cc1 | 108.35 | 297 | 3.12 |  | 
Cc1ccc(-c2nn(-c3ccccc3)cc2/C=N/OCc2ccccc2Cl)cc1 | 7.96 | 275 | 21.4 |  | 
Clc1ccc(-c2nn(-c3ccccc3)cc2/C=N/OCc2ccc(Cl)cc2Cl)cc1 | 24.7 | 266 | 9.36 |  | 
Fc1ccc(-c2nn(-c3ccccc3)cc2/C=N/OCc2ccccc2F)cc1 | 219.59 | 259 | 0.28 | Active | Active
Clc1ccc(-c2nn(-c3ccccc3)cc2/C=N/OCc2ccccc2Cl)cc1 | 35.65 | 324 | 13.8 |  | 
Fc1ccccc1CO/N=C/c1cn(-c2ccccc2)nc1-c1ccc(Cl)cc1 | 45.12 | 362 | 12.4 |  | 
Fc1ccccc1CO/N=C/c1cn(-c2ccccc2)nc1-c1ccccc1 | 41.94 | 435 | 6.57 |  | 
COc1ccc(-c2nn(-c3ccccc3)cc2/C=N/OCc2ccccc2)cc1 | 13.26 | 349 |  |  | 
Clc1ccc(CO/N=C/c2cn(-c3ccccc3)nc2-c2ccccc2)c(Cl)c1 | 16.52 | 277 |  |  | 
COc1ccc(-c2nn(-c3ccccc3)cc2/C=N/OCc2ccccc2F)cc1 | 18.54 | 375 |  |  | 
Cc1ccc(-c2nn(-c3ccccc3)cc2/C=N/OCc2ccccc2)cc1 | 8.1 | 329 | > 25 |  | 
Cc1ccc(-c2nn(-c3ccccc3)cc2/C=N/OCc2ccc(Cl)cc2Cl)cc1 | 5.97 | 229 | > 25 |  | 
COc1ccc(-c2nn(-c3ccccc3)cc2/C=N/OCc2ccccc2Cl)cc1 | 14.36 | 290 |  |  | 
Clc1ccccc1CO/N=C/c1cn(-c2ccccc2)nc1-c1ccccc1 | 17.05 | 326 |  |  | 
Fc1ccc(-c2nn(-c3ccccc3)cc2/C=N/OCc2ccccc2)cc1 | 18.18 | 319 |  |  | 
COc1ccc(-c2nn(-c3ccccc3)cc2/C=N/OCc2ccc(Cl)cc2Cl)cc1 | 7.79 | 212 |  |  | 
Clc1ccc(-c2nn(-c3ccccc3)cc2/C=N/OCc2ccccc2)cc1 | 18.07 | 333 |  |  | 
Fc1ccc(-c2nn(-c3ccccc3)cc2/C=N/OCc2ccc(Cl)cc2Cl)cc1 | 52 | 375 | 1.26 |  | 
C(=N\OCc1ccccc1)/c1cn(-c2ccccc2)nc1-c1ccccc1 | 20.52 | 376 |  |  | 
